From patent US11253486B2, “Bakuchiol compositions for treatment of post inflammatory hyperpigmentation” (Unigen, Inc., priority 2011, dated 2022)

Columns and labels:
[1] = system: acne lesions and Post Inflammatory Hyperpigmentation; conditions: OTC drugs, Studies 1-3, 10 or 12 week studies; cited from earlier work
[2] = system: subjects with PIH related to acne; test: Double blind placebo and positive controlled study for PIH related to acne (Example 11); format: in vivo, human; conditions: for PIH grade, mean: cream twice a day to the face
Description: The safety and efficacy of a 0.5% (wt/wt) cream of bakuchiol (UP256) was evaluated in a double blind placebo and positive controlled study for the treatment of PIH related to acne. The study evaluated a bakuchiol cream at 0.5% concentration, a 2% Salicylic acid cream and a placebo cream (Vehicle) in an Asian population. The participants were instructed to apply the study creams to the face twice a day (AM/PM). Study participants were given instructions for application and provided with sunscreen.
The study population consisted of male and female subjects older than 18 and younger than 40 years and in generally good health as determined by a medical history. The bakuchiol study arm enrolled 18 subjects, the Salicylic acid (SAL) study arm enrolled 20 subjects, and the placebo study arm enrolled 19 subjects.
The PIH grade is a measure of the severity of the hyperpigmentation (higher number=more severe pigmentation).
Primary Study Objectives: • 1. PIH IGA Time Frame: Baseline and weeks 2, 4 and 8 • 2. PIH % Distribution Time Frame: Baseline and weeks 2, 4 and 8
PIH efficacy was evaluated based on changes from baseline (p<0.05) and over other treatment groups (p<0.05) using t-test or/and ANOVA.
Subject's Assessment questionnaires and Tolerability Assessments were collected at Baseline and weeks 2, 4, and 8. Urine pregnancy tests for females of childbearing potential were collected at Baseline and week 8.
The following data was collected: • 1. Change from baseline in PIH Severity; • 2. Change from baseline in the PIH Grade; and • 3. Change from baseline in the Lesion counts
The data was analyzed from Investigator evaluations at each visit and from photographs taken at the specified time points. The photographs from baseline, week 4, and week 8 were evaluated by a second group of investigators and two independent dermatologists before the study was unblended to further confirm that the population met criteria. The data analyzed is based on confirmed evaluations, there was no photo for week two therefore week two data is not included in the analysis.

[3] = biological target: mushroom tyrosinase (Agaricus bisporus, UniProt C7FF04); test: Tyrosinase inhibition assay (L-DOPA to dopachrome); format: biochemical; conditions: eight different dosages; <100 ppm furanocoumarins; FIG. 4
mushroom tyrosinase, sequence (C7FF04 2-392): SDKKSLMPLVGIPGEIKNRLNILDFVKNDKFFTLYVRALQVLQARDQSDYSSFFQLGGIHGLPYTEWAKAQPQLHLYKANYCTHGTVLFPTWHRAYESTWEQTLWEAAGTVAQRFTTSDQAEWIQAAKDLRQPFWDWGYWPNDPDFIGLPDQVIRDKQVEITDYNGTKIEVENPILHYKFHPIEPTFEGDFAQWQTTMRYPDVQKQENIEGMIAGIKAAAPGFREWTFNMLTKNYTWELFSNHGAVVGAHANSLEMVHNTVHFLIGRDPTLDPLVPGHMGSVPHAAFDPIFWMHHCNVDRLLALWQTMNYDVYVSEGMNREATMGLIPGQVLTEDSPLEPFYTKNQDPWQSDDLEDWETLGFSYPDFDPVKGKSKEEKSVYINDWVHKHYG
Description: A tyrosinase inhibition assay was carried out using the method reported by Jones et al. (2002) Pigment. […] Using this method, the conversion of L-Dopa, a substrate of tyrosinase, into dopachrome was followed by monitoring absorption at 450 nm. Tyrosinase was prepared in 50 mM potassium phosphate buffer, pH 6.8 (assay buffer) at 2000 U/ml and stored at −20° C. in 1 ml aliquots prior to use. For use in assays, stock enzyme solutions were thawed and diluted to 200 U/ml with assay buffer. A 2 mM working solution of substrate, L-DOPA, was prepared in assay buffer for each assay. Samples were dissolved in 10% DMSO (0.5 ml) and diluted to 5 ml with assay buffer. The reaction mixture comprised 0.050 ml 2 mM L-DOPA, 0.050 ml 200 U/ml mushroom tyrosinase and 0.050 ml inhibitor. Reaction volume was adjusted to 200 μl with assay buffer. Assays were performed in 96 well Falcon 3097 flat-bottom microtiter plates (Beckton Dickinson, N.J.). Appearance of dopachrome was measured with a WALLAC 1420 Multilable Counter (Turku, Finland). Average velocity was determined from linear enzyme rate as measured by change in absorbance (ΔA450) at 450 nm per minute. Percent inhibition of tyrosinase by test samples was determined by comparison of absorbance of samples versus control using formula (1): (Negative control absorption−sample absorption)/Negative control absorption×100 (1)

[4] = Percutaneous absorption ex-vivo test; format: in vitro ADME, human; conditions: 0.5% formulation concentration, single application, over 48 hours
Source text: The partition coefficient of a chemical compound provides a thermodynamic measure of its hydrophilicity/lipophilicity balance and thus its potential bioavailability. […] The skin penetration of the active compound—bakuchiol in a skin care cream was quantified in an ex-vivo test on isolated human skin. […] In certain embodiments, the disclosed compositions comprise a skin penetration enhancer.
Two natural bakuchiol compositions comprising 86.54% bakuchiol and 77.02% bakuchiol and a combined total of less than 100 ppm psoralen and angelicin (isopsoralen) were formulated in a cosmetic vehicle or complicated skin care cream and tested on in vitro models or in human clinical trials for their safety profile.

[5] = questionnaire and investigator safety evaluation, count

Q: Which results are given for `O=C(OOC(=O)c1ccccc1)c1ccccc1` [Benzoyl peroxide (5%), Benzoyl peroxide]?
A: Improvement of Post Inflammatory Hyperpigmentation [1]: 0; Mean percent reduction in inflammatory lesion counts [1]: 32%; Mean percent reduction in non-inflammatory lesion counts [1]: 22%; Mean percent reduction in total lesion counts [1]: 28%

Q: Which “Inflammatory acne lesions, mean” value ([2]; Baseline) does the source give for `O=C(O)c1ccccc1O` [Salicylic Acid, Salicylic acid] here?
A: Its value is 11.2.

Q: What about the “PIH grade, mean” value ([2]; Baseline) of the same compound?
A: The value was 3.15.

Q: What about the “Inflammatory acne lesions, mean” value ([2]; Week 4) of the same compound?
A: The value was 9.25.

Q: What about the “PIH grade, mean” value ([2]; Week 4) of the same compound?
A: The value was 3.2.

Q: What about the “Inflammatory acne lesions, mean” value ([2]; Week 8) of the same compound?
A: Its value is 8.65.

Q: And the “PIH grade, mean” value ([2]; Week 8)?
A: Its value is 3.2.

Q: What about the “Subject assessment: Itching/Burning” value [2, 5] of the same compound?
A: Its value is 4.

Q: And the “Subject assessment: Skin Discomfort” value [2, 5]?
A: Its value is 2.

Q: Which tyrosinase inhibition activity [3] does the source give for `C=CC(C)(/C=C/c1ccc(O)cc1)CCC=C(C)C` (centres unmarked) [bakuchiol] here?
A: Its tyrosinase inhibition activity is “no tyrosinase inhibition function”.

Q: And the “skin penetration / percutaneous absorption” value [4]?
A: The value was “good skin penetration and bioavailability”.
